Laboratory results: patent US20140039204A1, “7'-PHLOROECKOL COMPOUND FOR HAIR PROLIFERATION AND A COSMETIC COMPOSITION CONTAINING SAME” (PUKYONG NATIONAL UNIVERSITY INDUSTRY-UNIVERSITY COOPERATION …, priority 2011, published 2014)

How the values were obtained:
[1] = test system: Human Hair Follicle Dermal Papilla Cells (HFDPC); assay: MTT assay, cell proliferation of HFDPC; type: cell-based
Experimental: (§1) Human Hair Follicle Dermal Papilla Cells (HFDPC) were purchased from Promo Cell (Heidelberg, Germany). Cells were cultured in ready-to-use HFDPC medium, which is composed of Basal Medium, Fetal Calf Serum (FCS), Supplement Kit (Promo Cell, Heidelberg, Germany) including basic FGF and insulin. Kit including HEPES Buffer Saline Solution (HBSS), trypsin/EDTA solution and Trypsin Neutralizing Solution (Promo Cell, Heidelberg, Germany) was used for subculture. Subcultured 4th to 6th TFDPC was used for experiments. HaCaT (human epidermal keratinocyte) was cultured in Dulbecco's modified Eagle's medium (DMEM, Gibco BRL,
(§2) 3-[4,5-dimethylthiazol-2yl]-2,5 diphenyl tetrazolium bromide (MTT) Assay
(§3) Cell proliferation of HFDPC and HaCaT were measured by using MTT method. After cells were seeded in 96-well with serum-free medium, the cells were incubated for 1 day (1.0×10^4 cells/well). Then, we replaced with new medium and cells were treated with 0.01 μM, 0.05 μM, 0.1 μμM, 0.5 μM and 1 μM samples, then incubated for 5 days. MTT solution (5 mg/ml) was added, the cells were cultivated in 37° C. incubator for 3 hours. Then, the medium were removed and the formazan crystal were dissolved with Dimethyl sulfoxide (DMSO), then the absorbance of the solution were measured.
As described in the FIG. 1 and FIG. 2, data were expressed as the percentage on the control that doesn't contain the treated samples. […] Different letters as stated on the graph indicate a significant difference in Duncan's multiple range test (p<0.05).

[2] = test system: caspase-3 and caspase-9 in HFDPC; assay: Western blot, caspase-3 and caspase-9 in HFDPC; type: cell-based, human; conditions: 0.5 μM, 24 hours
Experimental: (§4) Western blot assay was performed as standard procedure to study the action mechanism on HFDPC and HaCaT proliferation mediated by 7′-phloroeckol. That is, cells were seeded with serum free medium in 6-well, then cultured for 24 hours (1.0×10^6 cells/well). Then, the cells were replaced with new medium and treated with the samples in the different concentrations for 1 hour to 24 hours. The cells were lysed in RIPA lysis buffer at 4° C. for 10 minutes. 10 μg cell lysate were divided by 10% SDS-polyacrylamide gel electrophoresis, transferred to polyvinylidenefluoride membrane filter and the membranes were blocked with 5% skim milk, hybridized with primary antibodies (1:10,000 dilution). Following the incubation with secondary horseradish peroxidase-conjugated antibodies at room temperature, immunoreactive protein was detected by using chemiluminescence ECL assay kit according to the manufacturer's instructions. Western blot band was visualized by using LAS3000® Luminescent image analyzer (Fujifilm Life Science, Tokyo, Japan).
(§5) Cells were treated with 7′-phloroeckol for 1 hour to 24 hours to examine the expression of protein by using western blot assay. […]
(§6) Data were expressed as a ratio of control group that doesn't contain the treated samples, the values are means±SEM, different letters written on the graph indicate a significant defference in Duncan's multiple range test (p<0.05). […]

[3] = test system: AKT pathway (PI3K, pAKT) in HaCaT; assay: Western blot, AKT pathway in HaCaT; type: cell-based, human; conditions: 0.5 μM, 1 hour
Experimental: as §4, §5, §6

Bcl-2, Bax, p53 in HFDPC = assay: Western blot, apoptosis-related factors in HFDPC; type: cell-based, human; conditions: 24 hours
Experimental: as §4
(§7) Cells were treated with 7′-phloroeckol for 1 hour to 24 hours to examine the expression of protein by using western blot assay. Graph showing the result of western blot in HFDPC were illustrated in the FIGS. 3 to 6(a) and graphs showing the result of western blot in HaCaT were illustrated in the FIGS. 3 to 6(b). While HFDPC and HaCaT were treated with 7′-phloroeckol for 1 hour in the experiment on the pathway of ERK and AKT relating cell proliferation, HFDPC and HaCaT were treated with 7′-phloroeckol for 24 hours in the experiment on Bcl-2, Bax, p53, caspase-9 and caspase-3 relating apoptosis, then the protein expression were observed.
(§8) Data were expressed as a ratio of control group that doesn't contain the treated samples, the values are means±SEM, different letters written on the graph indicate a significant defference in Duncan's multiple range test (p<0.05).
(§9) To study the apoptotic effect by 7′-phloroeckol, HFDPC and HaCaT were treated with 7′-phloroeckol, then cultured for 24 hours (FIG. 5).

[4] = test system: AKT pathway (PI3K, p-AKT, whole AKT) in HFDPC; assay: Western blot, AKT pathway in HFDPC; type: cell-based, human; conditions: 1 hour
Experimental: as §4, §7, §8
After HFDPC and HaCaT were treated with 7′-phloroeckol and cultured for 1 hour to study the activation of 7′-phloroeckol on AKT pathway related cell proliferation (FIG. 4). […] But, there was no difference in whole AKT levels between treated with samples and without samples. Also, 0.5 μM 7′-phloroekol induced 1.75-fold and 1.65-fold levels of PI3K and pAKT in HaCaT.

[5] = test system: caspase-3 and caspase-9 in HaCaT; assay: Western blot, caspase-3 and caspase-9 in HaCaT; type: cell-based, human; conditions: 24 hours
Experimental: as §4, §7, §6

[6] = test system: ERK pathway (MEK ½, p-ERK, total ERK, c-Fos) in HFDPC; assay: Western blot, ERK pathway in HFDPC; type: cell-based, human; conditions: 1 hour
Experimental: as §4, §7, §8
(§10) HFDPC and HaCaT were treated with 7′-phloroeckol and cultured for 1 hour to study activation of 7′-phloroeckol on ERK pathway related to cell proliferation (FIG. 3).

[7] = test system: ERK pathway (MEK ½, p-ERK, c-Fos) in HaCaT; assay: Western blot, ERK pathway in HaCaT; type: cell-based, human; conditions: 1 hour
Experimental: as §4, §7, §8, §10

[8] = test system: HaCaT (human epidermal keratinocyte); assay: MTT assay, cell proliferation of HaCaT; type: cell-based; conditions: 5 days
Experimental: as §1, §2, §3
As described in the FIG. 1 and FIG. 2, data were expressed as the percentage on the control that doesn't contain the treated samples. […]

Bcl-2, Bax, p53 in HaCaT = assay: Western blot, apoptosis-related factors in HaCaT; type: cell-based, human; conditions: 24 hours
Experimental: as §4, §7, §8, §9

## Oc1cc(O)cc(Oc2c(O)cc(O)c3c2Oc2c(O)cc(Oc4c(O)cc(O)cc4O)cc2O3)c1 [7′-phloroeckol, 1-(3′,5′-dihydroxyphenoxy)-7-(2″,4″,6-trihydroxyphenoxy)-2,4,9-trihydroxydibenzo-1,4-dioxin]
[1]; 0.01-1 μM, 5 days, percentage of control
  cell proliferation in HFDPC: increased the cell proliferation in dose-dependent manner
[1]; HFDPC, 1 μM, 5 days
  cell viability compared with 1 μM Minoxidil: significantly higher cell viability than 1 μM Minoxidil
[1]; HFDPC, 0.5 to 1 μM
  cell proliferation, 0.5 versus 1 μM: weren't significantly different
[2]
  expression of caspase-3 protein versus control group: 0.14 fold
  expression of caspase-9 protein versus control group: 0.13 fold
[3]
  level of PI3K: 1.75 fold
  level of pAKT: 1.65 fold
Bcl-2, Bax, p53 in HFDPC
  expression level of Bcl-2: decreased
  expression level of p53: decreased
  expression of proapoptotic molecule Bax: decreased the expression of proapoptotic molecule Bax
Bcl-2, Bax, p53 in HFDPC; dose-dependent
  expression level of Bcl-2 protein: significantly increased
[4]; 0.05 μM
  PI3K levels versus control group: 1.76 fold
  expression of phospho AKT (p-AKT) protein versus control group: 1.53 fold
[4]; 0.5 μM
  PI3K levels versus control group: 3.07 fold
  expression of phospho AKT (p-AKT) protein versus control group: 2.40 fold
[4]
  whole AKT levels, treated versus untreated: no difference
[5]; 0.05 μM
  expression of caspase-3 protein versus control group: 0.88 fold
[5]; 0.5 μM
  expression of caspase-3 protein versus control group: 0.68 fold
[5]
  expression of caspase-9: suppressing the expression
[6]; 0.05 μM
  expression of MEK ½ protein versus control group: 1.17 fold
  level of phospho-ERK (p-ERK) versus control group: 1.39 fold
[6]; 0.5 μM
  expression of MEK ½ protein versus control group: 1.65 fold
  level of phospho-ERK (p-ERK) versus control group: 1.71 fold
[6]; 0.05 and 0.5 μM
  expression of c-Fos protein: increased the expression of c-Fos protein
  total ERK levels, treated versus untreated: no significant difference
[7]
  expression of MEK ½ protein: increased in dose-dependent manner
  expression of c-Fos protein: increased in dose-dependent manner
  expression of p-ERK protein: increased in dose-dependent manner
[8]; 0.01-1 μM, percentage of control
  cell proliferation in HaCaT: increased the cell proliferation in dose-dependent manner
[8]; HaCaT, 0.1 μM
  cell viability compared with 0.1 μM Minoxidil: higher cell viability than 0.1 μM Minoxidil
Bcl-2, Bax, p53 in HaCaT; 0.05 μM
  expression of Bcl-2 protein versus control group: 2.60 fold
Bcl-2, Bax, p53 in HaCaT; 0.5 μM
  expression of Bcl-2 protein versus control group: 4.21 fold
  level of Bax versus control: 0.67 fold
  level of p53 versus control: 0.72 fold
